Laboratory results published in US12102089B2, “Method for inactivating mold spores” (DSM IP ASSETS B.V., priority 2017, dated 2024).

Assays:
[1] = system: in-house strain of Aspergillus niger; experiment: Heat treatment of in-house Aspergillus niger spores in ice tea with natamycin, visual growth; type: cell-based; parameters: key to growth or no growth: growth (+); no growth (−)
Experimental: Commercially available ice tea (Lipton, peach flavor, non-carbonated, 1.5 L) was adjusted to high water hardness by adding 1 ml of a solution of 39 g CaCl2 and 27 g MgCl2 added to 934 g water. ⅓ of this ice tea preparation (the pH of which was 3.15) was left as-such, ⅓ of the preparation was enriched with 5 ppm natamycin and ⅓ of the preparation was enriched with 10 ppm natamycin. Samples of 5 ml were made from each preparation in 15 ml sterile plastic tubes. Of each preparation 8 samples were pre-heated to the desired pasteurization temperature using a water bath. Temperatures used were RT, 60, 65, 70, 75, 80, 85 and 90° C. When the desired temperature was reached, 100 μl of a 2500 spores/ml spore suspension of Aspergillus niger ATCC 9029AA was added to each tube. Subsequently, the samples were kept for 30 seconds at the temperature in question in the water bath. Next, the samples were cooled on ice to a temperature of 25° C. Samples were incubated at 25° C. and visually examined for growth (formation of mold flakes or turbidity) for two months. Additionally, samples were enumerated according to ISO protocol 21527-1.2008 on day 0 (before heat treatment) and day 1 (after heat treatment) to count immediate loss of viability. […] For the results, see Table 1. […] For comparative reasons, Example 1 was repeated with an in-house strain of Aspergillus niger. […] For the results, see Table 2.

[2] = system: Taleromyces macrosporus CBS 130.89; conditions: 2.5 ppm natamycin, heat treatment, apple juice; cited from earlier work

Q: Which results are given for `C[C@@H]1C/C=C/C=C/C=C/C=C/[C@H](O[C@@H]2O[C@H](C)[C@@H](O)[C@H](N)[C@@H]2O)C[C@@H]2O[C@](O)(C[C@@H](O)C[C@H]3O[C@@H]3/C=C/C(=O)O1)C[C@H](O)[C@H]2C(=O)O` [natamycin]?
A: growth or no growth ([1]; 60°C, 5 ppm, day 1): −; growth or no growth ([1]; 60°C, 5 ppm, day 2): −; growth or no growth ([1]; 60°C, 5 ppm, day 3): −; growth or no growth ([1]; 60°C, 5 ppm, day 4): −; growth or no growth ([1]; 60°C, 5 ppm, day 5): −; growth or no growth ([1]; 60°C, 5 ppm, day 6): −; growth or no growth ([1]; 60°C, 5 ppm, day 7): +; growth or no growth ([1]; 60°C, 5 ppm, day 8): +; growth or no growth ([1]; 60°C, 5 ppm, day 9): +; growth or no growth ([1]; 60°C, 5 ppm, day 10): +; growth or no growth ([1]; 60°C, 5 ppm, day 11): +; growth or no growth ([1]; 60°C, 5 ppm, day 12): +; growth or no growth ([1]; 60°C, 5 ppm, day 13): +; growth or no growth ([1]; 60°C, 5 ppm, day 14): +; growth or no growth ([1]; 60°C, 10 ppm, day 1): −; growth or no growth ([1]; 60°C, 10 ppm, day 2): −; growth or no growth ([1]; 60°C, 10 ppm, day 3): −; growth or no growth ([1]; 60°C, 10 ppm, day 4): −; growth or no growth ([1]; 60°C, 10 ppm, day 5): −; growth or no growth ([1]; 60°C, 10 ppm, day 6): −; growth or no growth ([1]; 60°C, 10 ppm, day 7): −; growth or no growth ([1]; 60°C, 10 ppm, day 8): −; growth or no growth ([1]; 60°C, 10 ppm, day 9): −; growth or no growth ([1]; 60°C, 10 ppm, day 10): −; growth or no growth ([1]; 60°C, 10 ppm, day 11): +; growth or no growth ([1]; 60°C, 10 ppm, day 12): +; growth or no growth ([1]; 60°C, 10 ppm, day 13): +; growth or no growth ([1]; 60°C, 10 ppm, day 14): +; germination ([1]; 65° C., 70° C. and 80° C., in the presence of natamycin): no germination occurred; growth or no growth ([1]; 65°C, 5 ppm, day 1): −; growth or no growth ([1]; 65°C, 5 ppm, day 2): −; growth or no growth ([1]; 65°C, 5 ppm, day 3): −; growth or no growth ([1]; 65°C, 5 ppm, day 4): −; growth or no growth ([1]; 65°C, 5 ppm, day 5): −; growth or no growth ([1]; 65°C, 5 ppm, day 6): −; growth or no growth ([1]; 65°C, 5 ppm, day 7): −; growth or no growth ([1]; 65°C, 5 ppm, day 8): −; growth or no growth ([1]; 65°C, 5 ppm, day 9): −; growth or no growth ([1]; 65°C, 5 ppm, day 10): −; growth or no growth ([1]; 65°C, 5 ppm, day 11): −; growth or no growth ([1]; 65°C, 5 ppm, day 12): −; growth or no growth ([1]; 65°C, 5 ppm, day 13): −; growth or no growth ([1]; 65°C, 5 ppm, day 14): −; growth or no growth ([1]; 65°C, 10 ppm, day 1): −; growth or no growth ([1]; 65°C, 10 ppm, day 2): −; growth or no growth ([1]; 65°C, 10 ppm, day 3): −; growth or no growth ([1]; 65°C, 10 ppm, day 4): −; growth or no growth ([1]; 65°C, 10 ppm, day 5): −; growth or no growth ([1]; 65°C, 10 ppm, day 6): −; growth or no growth ([1]; 65°C, 10 ppm, day 7): −; growth or no growth ([1]; 65°C, 10 ppm, day 8): −; growth or no growth ([1]; 65°C, 10 ppm, day 9): −; growth or no growth ([1]; 65°C, 10 ppm, day 10): −; growth or no growth ([1]; 65°C, 10 ppm, day 11): −; growth or no growth ([1]; 65°C, 10 ppm, day 12): −; growth or no growth ([1]; 65°C, 10 ppm, day 13): −; growth or no growth ([1]; 65°C, 10 ppm, day 14): −; growth or no growth ([1]; 70°C, 5 ppm, day 1): −; growth or no growth ([1]; 70°C, 5 ppm, day 2): −; growth or no growth ([1]; 70°C, 5 ppm, day 3): −; growth or no growth ([1]; 70°C, 5 ppm, day 4): −; growth or no growth ([1]; 70°C, 5 ppm, day 5): −; growth or no growth ([1]; 70°C, 5 ppm, day 6): −; growth or no growth ([1]; 70°C, 5 ppm, day 7): −; growth or no growth ([1]; 70°C, 5 ppm, day 8): −; growth or no growth ([1]; 70°C, 5 ppm, day 9): −; growth or no growth ([1]; 70°C, 5 ppm, day 10): −; growth or no growth ([1]; 70°C, 5 ppm, day 11): −; growth or no growth ([1]; 70°C, 5 ppm, day 12): −; growth or no growth ([1]; 70°C, 5 ppm, day 13): −; growth or no growth ([1]; 70°C, 5 ppm, day 14): −; growth or no growth ([1]; 70°C, 10 ppm, day 1): −; growth or no growth ([1]; 70°C, 10 ppm, day 2): −; growth or no growth ([1]; 70°C, 10 ppm, day 3): −; growth or no growth ([1]; 70°C, 10 ppm, day 4): −; growth or no growth ([1]; 70°C, 10 ppm, day 5): −; growth or no growth ([1]; 70°C, 10 ppm, day 6): −; growth or no growth ([1]; 70°C, 10 ppm, day 7): −; growth or no growth ([1]; 70°C, 10 ppm, day 8): −; growth or no growth ([1]; 70°C, 10 ppm, day 9): −; growth or no growth ([1]; 70°C, 10 ppm, day 10): −; growth or no growth ([1]; 70°C, 10 ppm, day 11): −; growth or no growth ([1]; 70°C, 10 ppm, day 12): −; growth or no growth ([1]; 70°C, 10 ppm, day 13): −; growth or no growth ([1]; 70°C, 10 ppm, day 14): −; growth or no growth ([1]; 75°C, 5 ppm, day 1): −; growth or no growth ([1]; 75°C, 5 ppm, day 2): −; growth or no growth ([1]; 75°C, 5 ppm, day 3): −; growth or no growth ([1]; 75°C, 5 ppm, day 4): −; growth or no growth ([1]; 75°C, 5 ppm, day 5): −; growth or no growth ([1]; 75°C, 5 ppm, day 6): −; growth or no growth ([1]; 75°C, 5 ppm, day 7): −; growth or no growth ([1]; 75°C, 5 ppm, day 8): −; growth or no growth ([1]; 75°C, 5 ppm, day 9): −; growth or no growth ([1]; 75°C, 5 ppm, day 10): −; growth or no growth ([1]; 75°C, 5 ppm, day 11): −; growth or no growth ([1]; 75°C, 5 ppm, day 12): −; growth or no growth ([1]; 75°C, 5 ppm, day 13): −; growth or no growth ([1]; 75°C, 5 ppm, day 14): −; growth or no growth ([1]; 75°C, 10 ppm, day 9): −; growth or no growth ([1]; 75°C, 10 ppm, day 10): −; germination ([1]; RT and 60° C., 5 ppm natamycin): delayed germination; germination ([1]; RT and 60° C., 10 ppm natamycin): longer delay; duration of prevention of germination [2]: 4 days
